Assay results: patent publication US10570180B2, “Anti-bacterial agents and their use in therapy” (priority 2015, dated 2020)
≈ marks a conversion by molar mass, not a printed value. Where two headings read alike, the source gives them in different places.

Key:
[1] = test system: E. faecium CTC 492; assay: MIC assay of antibiotics with ATX-101; format: cell-based, Enterococcus faecium; settings: for MIC: Enterococcus faecium, CTC492, E. faecium CTC 492, read-out: Est MIC
Procedure: (§1) The minimum inhibitory concentration (MIC) of ATX-101 (SEQ ID NO: 1289) was determined for various gram negative and gram positive bacteria. The bacteria, Pseudomonas aeruginosa ATCC 15692, Acinetobacter baumenni ATCC 19600, Escherichia coli ATCC 25922, Pseudomonas aeruginosa TO-5A (clinical isolate), Enterococous faecium CCUG 37832, Enterococcus faecium CTC 492, Micrococcus luteus ATCC 9341 and Escherichie coli NCIMB 12210 were grown in the presence of various concentrations of ATX-101 and/or antibiotic.
(§2) ATX-101 was dissolved in Mueller-Hinton broth to 1.25 times of the desired assay concentration. Antibiotics were dissolved in Mueller-Hinton broth and Mueller-Hinton broth with ATX-101 at a concentration of 1.25 times the highest desired assay concentrations. Antibiotics were pharmaceutical grade purchased from Sigma-Aldrich.
(§3) Two-fold serial dilutions of antibiotics were made in Mueller-Hinton with different concentrations of ATX-101, and the solutions were placed in four parallel wells is Nunc 384-well micro plates (30 μl per well in Nunc 242757 microplates). A group of 8 wells with no addition of antibiotics for each ATX-101 concentration was included on each micro plate as a growth reference.
(§4) At the day of analysis, overnight TSB cultures inoculated from freeze stocks (6 ml in 50 ml tube tilted to 45-degrees angle, 200 rpm, 2.5 cm amplitude, 37° C.) were diluted in TSB until the OD800 was 0.10, and further diluted 1:40 in Mueller-Hinton broth. Each well in the 384-well assay plates was inoculated with 7.5 μl of the diluted culture, giving the same dilution of the culture in the assay cultures. The microplates were placed in plastic bags and incubated without shaking at 37° C. The optical density at 600 nm in the microwells was measured after approximately 19 hours of incubation, and the relative growth yield was calculated based on the growth in the reference groups. The MIC value was set to the highest concentration giving less than 30% growth in all 4 parallel wells within the sample groups. The microplates were further incubated for 6 hours, and optical density in the cultures was measured once more for confirmation of the estimated MIC-values.
as §2, with “The APIM peptide was” for “ATX-101 was”, “with APIM” for “with ATX-101”
as §3, with “APIM,” for “ATX-101,”, “in” for “is”, “APIM” for “ATX-101”, “as” for “as a”
as §4, with “inoculated” for “inoculated from”, “OD600” for “OD800”, “culture.” for “culture, giving the same dilution of the culture in the assay cultures.”, “yield in each well” for “yield”

[2] = test system: Staphylococcus aureus MRSA 1040s; assay: microbe, parasite or virus in culture; format: cell-based; settings: for MIC: Staphylococcus aureus, Table 6, alone, MRSA 1040s, read-out: MIC; for MIC when combined with 10 μg/ml of ATX-101: Table 6, MRSA 1040s
Procedure: as §2, §3, §4
as §2, with “The APIM peptide was” for “ATX-101 was”, “with APIM” for “with ATX-101”
as §3, with “APIM,” for “ATX-101,”, “in” for “is”, “APIM” for “ATX-101”, “as” for “as a”
as §4, with “inoculated” for “inoculated from”, “OD600” for “OD800”, “culture.” for “culture, giving the same dilution of the culture in the assay cultures.”, “yield in each well” for “yield”
In view of the anti-bacterial effect of ATX-101 on strains of MRSA, the MIC for a variety of APIM variants was determined using Staphylococcus aureus MRSA 1040s. […] A cell penetrating peptide (SEQ ID NO: 337) present in all of the APIM peptides, was used as a negative control.
Next, the effect of APIM peptides on the MIC of antibiotics was determined using Staphylococcus aureus MRSA 1040s.
The MICS for various APIM peptides were determined for various bacteria, as described above.

[3] = test system: E. coli NCIMB 12210; assay: MIC assay of antibiotics with ATX-101; format: cell-based, Escherichia coli; settings: Escherichia coli, NCIMB12210, E. coli NCIMB 12210, read-out: Est MIC
Procedure: as §1, §2, §3, §4
as §2, with “The APIM peptide was” for “ATX-101 was”, “with APIM” for “with ATX-101”
as §3, with “APIM,” for “ATX-101,”, “in” for “is”, “APIM” for “ATX-101”, “as” for “as a”
as §4, with “inoculated” for “inoculated from”, “OD600” for “OD800”, “culture.” for “culture, giving the same dilution of the culture in the assay cultures.”, “yield in each well” for “yield”

[4] = test system: A. baumanii ATCC 19606; assay: MIC assay of antibiotics with ATX-101; format: cell-based; settings: Acinetobacter baumannii, ATCC19606, A. baumanii ATCC 19606, read-out: Est MIC
Procedure: as §2, with “The APIM peptide was” for “ATX-101 was”, “with APIM” for “with ATX-101”
as §3, with “APIM,” for “ATX-101,”, “in” for “is”, “APIM” for “ATX-101”, “as” for “as a”
as §4, with “inoculated” for “inoculated from”, “OD600” for “OD800”, “culture.” for “culture, giving the same dilution of the culture in the assay cultures.”, “yield in each well” for “yield”

MIC ([1]; APIM (ATX-101) conc. 6.5 μg/ml) | MIC ([1]; APIM (ATX-101) conc. 13 μg/ml) | MIC ([1]; APIM conc. 0 μg/ml) | MIC [2] | MIC when combined with 10 μg/ml of ATX-101 [2] | MIC ([3]; APIM (ATX-101) conc. 2 μg/ml) | MIC ([3]; APIM (ATX-101) conc. 4 μg/ml) | MIC ([3]; APIM (ATX-101) conc. 8 μg/ml) | MIC ([3]; APIM conc. 0 μg/ml) | MIC ([4]; APIM (ATX-101) conc. 2 μg/ml) | MIC ([4]; APIM (ATX-101) conc. 4 μg/ml) | MIC ([4]; APIM conc. 0 μg/ml) | Compound | ampicillin concentration sufficient to inhibit bacterial growth ([1]; combined with 6.5 μg/ml or 13 μg/ml ATX-101, FIG. 3) | ampicillin concentration required for the same level of inhibition ([1]; without ATX-101, FIG. 3) | MIC ([4]; APIM (ATX-101) conc. 8 μg/ml)
0.5 µg/mL (≈ 1.43 µM) | 0.5 µg/mL (≈ 1.43 µM) | 1 µg/mL (≈ 2.86 µM) | – | – | – | – | – | – | – | – | – | CC1(C)S[C@@H]2[C@H](NC(=O)[C@H](N)c3ccccc3)C(=O)N2[C@H]1C(=O)O [Ampicillin] | about 0.5 μg/ml | 1 µg/mL | –
64 µg/mL (≈ 119 µM) | 32 µg/mL (≈ 59.3 µM) | 64 µg/mL (≈ 119 µM) | – | – | – | – | – | – | – | – | – | CN[C@@H]1[C@@H](O[C@H]2O[C@H](CO)[C@@H](N)[C@H](O)[C@H]2O)OC2C[C@@H](N)[C@@H](O[C@H]3[C@H](O)[C@@H](O)[C@H](N)C[C@@H]3N)OC2[C@@H]1O (stereo partly shown) [Apramycin] | – | – | –
– | – | – | > 1030 µg/mL | 8 µg/mL | – | – | – | – | – | – | – | CC[C@H]1OC(=O)[C@H](C)[C@@H](O[C@H]2C[C@@](C)(OC)[C@@H](O)[C@H](C)O2)[C@H](C)[C@@H](O[C@@H]2O[C@H](C)C[C@H](N(C)C)[C@H]2O)[C@](C)(O)C[C@@H](C)CN(C)[C@H](C)[C@@H](O)[C@]1(C)O [Azithromycin, reference compound] | – | – | –
2 µg/mL (≈ 6.19 µM) | 1 µg/mL (≈ 3.09 µM) | 2 µg/mL (≈ 6.19 µM) | – | – | 2 µg/mL (≈ 6.19 µM) | 2 µg/mL (≈ 6.19 µM) | 1 µg/mL (≈ 3.09 µM) | 2 µg/mL (≈ 6.19 µM) | – | – | – | O=C(N[C@H](CO)[C@H](O)c1ccc([N+](=O)[O-])cc1)C(Cl)Cl [Chloramphenicol] | – | – | –
4 µg/mL (≈ 5.45 µM) | 1 µg/mL (≈ 1.36 µM) | 4 µg/mL (≈ 5.45 µM) | > 1030 µg/mL | 2 µg/mL | – | – | – | – | – | – | – | CC[C@H]1OC(=O)[C@H](C)[C@@H](O[C@H]2C[C@@](C)(OC)[C@@H](O)[C@H](C)O2)[C@H](C)[C@@H](O[C@@H]2O[C@H](C)C[C@H](N(C)C)[C@H]2O)[C@](C)(O)C[C@@H](C)C(=O)[C@H](C)[C@@H](O)[C@]1(C)O [Erythromycin] | – | – | –
2 µg/mL (≈ 6.68 µM) | 2 µg/mL (≈ 6.68 µM) | 4 µg/mL (≈ 13.4 µM) | – | – | – | – | – | – | 0.125 µg/mL (≈ 0.418 µM) | 0.125 µg/mL (≈ 0.418 µM) | 0.25 µg/mL (≈ 0.835 µM) | C[C@@H](O)[C@H]1C(=O)N2C(C(=O)O)=C(SCCN=CN)C[C@H]12 [Imipenem] | – | – | –
– | – | – | – | – | 32 µg/mL (≈ 52.2 µM) | 8 µg/mL (≈ 13.1 µM) | 4 µg/mL (≈ 6.53 µM) | 64 µg/mL (≈ 104 µM) | 8 µg/mL (≈ 13.1 µM) | 8 µg/mL (≈ 13.1 µM) | 8 µg/mL (≈ 13.1 µM) | CO[C@@H]1[C@@H](OC(N)=O)[C@@H](O)[C@H](Oc2ccc3c(O)c(NC(=O)c4ccc(O)c(CC=C(C)C)c4)c(=O)oc3c2C)OC1(C)C [Novobiocin] | – | – | 2 µg/mL (≈ 3.26 µM)

Compound | MIC ([1]; APIM (ATX-101) conc. 6.5 μg/ml) | MIC ([1]; APIM (ATX-101) conc. 13 μg/ml) | MIC ([1]; APIM conc. 0 μg/ml) | MIC [2] | MIC when combined with 10 μg/ml of ATX-101 [2] | MIC ([3]; APIM (ATX-101) conc. 2 μg/ml) | MIC ([3]; APIM (ATX-101) conc. 4 μg/ml) | MIC ([3]; APIM (ATX-101) conc. 8 μg/ml) | MIC ([3]; APIM conc. 0 μg/ml) | MIC ([4]; APIM (ATX-101) conc. 2 μg/ml) | MIC ([4]; APIM (ATX-101) conc. 4 μg/ml) | MIC ([4]; APIM conc. 0 μg/ml) | ampicillin concentration sufficient to inhibit bacterial growth ([1]; combined with 6.5 μg/ml or 13 μg/ml ATX-101, FIG. 3) | ampicillin concentration required for the same level of inhibition ([1]; without ATX-101, FIG. 3) | MIC ([4]; APIM (ATX-101) conc. 8 μg/ml)
CC[C@@]1([C@@H]2O[C@@H]([C@H]3O[C@@](O)(CO)[C@H](C)C[C@@H]3C)C[C@@H]2C)CC[C@H]([C@]2(C)CC[C@]3(C[C@H](O)[C@@H](C)[C@@H]([C@@H](C)[C@@H](OC)[C@H](C)C(=O)O)O3)O2)O1 [Monensin] | 0.5 µg/mL (≈ 0.745 µM) | 0.5 µg/mL (≈ 0.745 µM) | 1 µg/mL (≈ 1.49 µM) | – | – | – | – | – | – | 64 µg/mL (≈ 95.4 µM) | 64 µg/mL (≈ 95.4 µM) | 64 µg/mL (≈ 95.4 µM) | – | – | 32 µg/mL (≈ 47.7 µM)
